How the values were obtained:
[1] = Stability during storage (60° C., 75% R.H., 6 days), residual rate by thin layer densitometry; type: physicochemical; conditions: storage at 75% r.h.
Experimental: In the thin layer densitometry, spots each containing 100 μg of a test sample were applied onto thin layer plates. The spots were developed with a mixture of chloroform and ethanol (10:1, by volume). As the thin layer plates, TLC Plate Silica Gel 60 F254 (10×20 cm, 0.25 mm in thickness, a product of Merck & Co., Inc.) was used. The distance of development was 15 cm. The densitometry was effected by use of a Shimadzu Dichroic Chromatoscanner CS-910 (manufactured by Shimadzu Corporation) at a wavelength of 280 or 300 nm.

(H^+ +K^+)-ATPase = molecular target: T1, (H^+ +K^+)-ATPase (Sus scrofa, UniProt P19156); assay: (H^+ +K^+)-ATPase inhibiting activity; type: biochemical; conditions: enzyme from hog fundus ventriculi; incubation with compound 35° to 37° C., 5 to 30 minutes
T1 construct: prepared from the fundus ventriculi of fresh hog stomachs; from tissue; host or cells: fundus ventriculi of fresh hog stomachs, prepared by the method of Saccomani et al. (J. Biol. Chem. 251, 7690, 1976)
T1 sequence (P19156 2-1034 limits assumed): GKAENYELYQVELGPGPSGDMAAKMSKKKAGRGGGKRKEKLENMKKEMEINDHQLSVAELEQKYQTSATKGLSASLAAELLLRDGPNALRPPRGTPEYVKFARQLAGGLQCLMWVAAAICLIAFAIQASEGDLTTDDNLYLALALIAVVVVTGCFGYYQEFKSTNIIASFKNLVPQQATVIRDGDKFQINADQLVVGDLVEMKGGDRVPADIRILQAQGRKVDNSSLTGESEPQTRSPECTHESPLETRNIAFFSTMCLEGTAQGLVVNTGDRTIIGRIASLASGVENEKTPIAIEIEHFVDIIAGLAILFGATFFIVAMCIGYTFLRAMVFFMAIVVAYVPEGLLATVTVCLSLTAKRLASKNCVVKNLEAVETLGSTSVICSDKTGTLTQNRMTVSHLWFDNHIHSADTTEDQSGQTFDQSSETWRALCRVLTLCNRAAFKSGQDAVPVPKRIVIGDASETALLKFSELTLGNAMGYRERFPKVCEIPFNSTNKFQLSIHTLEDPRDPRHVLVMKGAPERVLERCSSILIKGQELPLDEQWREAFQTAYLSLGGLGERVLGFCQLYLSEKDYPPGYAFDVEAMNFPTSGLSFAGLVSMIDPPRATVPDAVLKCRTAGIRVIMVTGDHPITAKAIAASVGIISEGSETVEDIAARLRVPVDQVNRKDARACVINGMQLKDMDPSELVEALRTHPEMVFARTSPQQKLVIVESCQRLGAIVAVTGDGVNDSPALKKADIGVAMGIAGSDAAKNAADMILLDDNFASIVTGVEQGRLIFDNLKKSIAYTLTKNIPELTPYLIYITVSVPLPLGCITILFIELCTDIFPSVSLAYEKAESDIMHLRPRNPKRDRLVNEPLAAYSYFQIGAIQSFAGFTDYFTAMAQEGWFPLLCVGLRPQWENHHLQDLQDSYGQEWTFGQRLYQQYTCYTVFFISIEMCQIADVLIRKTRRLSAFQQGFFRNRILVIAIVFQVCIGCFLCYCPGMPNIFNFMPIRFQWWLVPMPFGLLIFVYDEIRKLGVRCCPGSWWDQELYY
T1 sequence (P18434 whole entry partner): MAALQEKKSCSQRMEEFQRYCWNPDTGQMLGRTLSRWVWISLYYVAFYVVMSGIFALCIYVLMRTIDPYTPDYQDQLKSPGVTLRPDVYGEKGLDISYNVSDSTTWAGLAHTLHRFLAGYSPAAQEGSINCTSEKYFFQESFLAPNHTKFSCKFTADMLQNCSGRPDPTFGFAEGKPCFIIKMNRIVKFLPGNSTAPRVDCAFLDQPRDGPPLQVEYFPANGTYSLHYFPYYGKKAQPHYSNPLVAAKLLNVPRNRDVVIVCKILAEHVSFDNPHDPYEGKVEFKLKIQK
Experimental: The (H^+ +K^+)-ATPase inhibiting activity of the present compounds [I] was determined in the following manner: […] The (H^+ +K^+)-ATPase used in the above test was prepared from the fundus ventriculi of fresh hog stomachs in accordance with the method of Saccomani et al. [The Journal of Biological Chemistry, Vol. 251, No. 23, p. 7690 (1976)]. […] The colorimetric measurement was effected at a wavelength range of from 360 to 400 nm. As a control experiment, the residual activity of (H^+ +K^+)-ATPase was determined in the same manner as above without addition of any test compounds. […] To be more specific, the difference between the colorimetric reading obtained in the control experiment and the colorimetric reading obtained with a test compound is calculated at various molar concentrations, and the difference is divided by the reading of the control experiment to give a rate of inhibition. With inhibition rates thus obtained, a density-inhibition rate curve is plotted, and the IC50 value is determined based on the curve. In the table is also shown, for the purpose of comparison, the (H^+ +K^+)-ATPase inhibiting activity of omeprazole determined in the same manner as above.

gastric acid secretion = assay: Gastric antisecretory effect (pylorus ligated rats); type: in vivo; conditions: Rattus norvegicus; po; male Wistar rats; pylorus ligated 1 hour after administration, total acid after 4 hours; read-out: Gastric Antisecretory Effect, ED50 (inhibition of total gastric acid by 50%)
Experimental: Exactly 1 hour after the completion of the administration, the pyloric regions of their stomachs were ligated. After 4 hours, the total acid contained in the gastric juice of each rat was determined. […] To collect the gastric juice, the rats were killed, and their stomachs were cut open. The total acid in the gastric juice was determined by titrating the juice with aqueous 0.1N sodium hydroxide solution until its pH reached 7.0. As a control experiment, the total acid contained in the gastric juice of rats not administered with the compounds was also determined in the same manner as above. […] In order to determine the ED50 value, the difference in total acid between a group of rats administered with a test compound and a group of rats not administered with any of the test compounds was calculated, and the difference was then divided by the total acid of the latter rats, so as to obtain a rate of inhibition. With inhibition rates thus obtained, a dosage-effect curve was plotted, and the ED50 value was determined on the basis of the curve. In the table is also shown, for the purpose of comparison, the ED50 value of omeprazole determined in the same manner as above.

Acute toxicity (LD50) = conditions: rat, in vivo, 5 weeks old male Wistar rats
Experimental: Using 5 weeks old male Wistar rats, acute toxicity (LD50) of two representative compounds (compounds obtained in Examples 1 and 8) of the present compounds [I] was tested.

[2] = stored without any special precautions; background statement; cited from earlier work
[3] = ip, administered intraperitoneally

Row | remaining at 144 h [1] | IC50 ((H^+ +K^+)-ATPase) | SMILES | ED50 (gastric acid secretion) | LD50 (Acute toxicity (LD50); [3]) | LD50 (Acute toxicity (LD50); po, administered orally) | stability of omeprazole when stored (in words) [2]
1 | 67% | 1.9 mM | COc1c(C)cnc(C[S+]([O-])c2nc3c(OCC4CC4)cccc3[nH]2)c1C (stereo not drawn) [Example 6, 2-[2-(4-methoxy-3,5-dimethyl)pyridylmethylsulfinyl]-4-cyclopropylmethyloxybenzimidazole] | – | – | – | –
2 | 76% | 0.43 mM | COc1cc(C[S+]([O-])c2nc3c(OCC4CC4)cccc3[nH]2)ncc1C (stereo not drawn) [Example 9, 2-[2-(4-methoxy-5-methyl)pyridylmethylsulfinyl]-4-cyclopropylmethyloxybenzimidazole] | – | – | – | –
3 | 88% | 0.9 mM | Cc1cnc(C[S+]([O-])c2nc3c(OCC4CC4)cccc3[nH]2)c(C)c1 (stereo not drawn) [Example 3, 2-[2-(3,5-dimethyl)pyridylmethylsulfinyl]-4-cyclopropylmethyloxybenzimidazole] | 19.5 mg/kg | – | – | –
4 | 37% | 1.7 mM | COc1c(C)cnc(C[S+]([O-])c2nc3cc(OCC4CC4)ccc3[nH]2)c1C (stereo not drawn) [Example 7, 2-[2-(4-methoxy-3,5-dimethyl)pyridylmethylsulfinyl]-5-cyclopropylmethyloxybenzimidazole] | – | – | – | –
5 | 59% | 2.1 mM | Cc1ccnc(C[S+]([O-])c2nc3cc(OCC4CC4)ccc3[nH]2)c1 (stereo not drawn) [Example 2, 2-[2-(4-methyl)pyridylmethylsulfinyl]-5-cyclopropylmethyloxybenzimidazole] | – | – | – | –
6 | 86% | 1.9 mM | Cc1cnc(C[S+]([O-])c2nc3c(OCC4CC4)cccc3[nH]2)c(C)c1C (stereo not drawn) [Example 5, 2-[2-(3,4,5-trimethyl)pyridylmethylsulfinyl]-4-cyclopropylmethyloxybenzimidazole] | – | – | – | –
7 | 94% | 1 mM | Cc1cnc(C[S+]([O-])c2nc3cc(OCC4CC4)ccc3[nH]2)c(C)c1C (stereo not drawn) [Example 4, 2-[2-(3,4,5-trimethyl)pyridylmethylsulfinyl]-5-cyclopropylmethyloxybenzimidazole] | 22.1 mg/kg | – | – | –

Row | SMILES | remaining at 144 h [1] | IC50 ((H^+ +K^+)-ATPase) | ED50 (gastric acid secretion) | LD50 (Acute toxicity (LD50); [3]) | LD50 (Acute toxicity (LD50); po, administered orally) | stability of omeprazole when stored (in words) [2]
8 | COc1cc(C[S+]([O-])c2nc3cc(OCC4CC4)ccc3[nH]2)ncc1C (stereo not drawn) [Example 8, 2-[2-(4-methoxy-5-methyl)pyridylmethylsulfinyl]-5-cyclopropylmethyloxybenzimidazole] | 32% | 0.3 mM | 25.9 mg/kg | ≥ 500 mg/kg | ≥ 4000 mg/kg | –
9 | COc1ccc2[nH]c([S+]([O-])Cc3ncc(C)c(OC)c3C)nc2c1 (stereo not drawn) [Omeprazole, 5-methoxy-2-[2-(4-methoxy-3,5-dimethyl)-pyridylmethylsulfinyl]benzimidazole, reference compound] | 5% | 1.8 mM | 30.5 mg/kg | – | – | degraded at an unexpectedly high rate
10 | Cc1cnc(C[S+]([O-])c2nc3cc(OCC4CC4)ccc3[nH]2)c(C)c1 (stereo not drawn) [Example 1, 2-[2-(3,5-dimethyl)pyridylmethylsulfinyl]-5-cyclopropylmethyloxybenzimidazole] | 91% | 1.8 mM | 17.8 mg/kg | ≥ 500 mg/kg | ≥ 4000 mg/kg | –
